According to publication PMC6556898 (Biomaterials, 2018):

Experiments:
[1] = test system: human monocyte-derived macrophages (MDM); assay: MTT cell vitality assay; type: cell-based; conditions: 12 hours
HIV-1ADA = assay: Antiretroviral activity: reverse transcriptase; type: cell-based

## Cc1cc(/C=C/C#N)cc(C)c1Nc1ccnc(Nc2ccc(C#N)cc2)n1 [native RPV, rilpivirine]
[1]; 200 μM (RPV), highest concentration tested
  cell vitality (MTT): 37.9%
[1]; up to 50 μM (RPV)
  effect on cell vitality (MTT): little effect on cell vitality
HIV-1ADA; 6.25 μM for 8 hours, challenge at day 5, MOI 0.1, 10 days post infection
  RT activity (progeny HIV virion production): virtually no protection
HIV-1ADA; 12.5 mM RPV equivalents (printed) for 8 hours, challenge at day 5
  RT activity (progeny HIV virion production): no protection
